Columns and labels:
[1] = tested on: male Sprague Dawley rats; experiment: Plasma variables after 4, 8 and 12 weeks of supplementation; type: in vivo, rat
Description: Solid food intake and body mass were monitored daily.
Blood was collected from the tail after four, eight, and twelve weeks of Cr or H2 O administration. Prior to blood collection, animals were fasted 12 to 15 hours.
Immediately after blood removal, 0.5 mg/mL heparin and 10 mg/mL NaF were added to the blood. Blood was next immediately centrifuged; the blood plasma was tested for glucose, total cholesterol, triglycerides, low density lipoprotein (LDL) cholesterol (week 12 only), and high density lipoprotein (HDL) cholesterol (week 12 only) using Diagnostic Kits from Sigma Chemical Co. (St. Louis, Mo.) and insulin using double antibody or antibody coated kits from ICN Biomedicals (Costa Mesa, Calif.).
Statistical analyses were performed by analysis of variance. All values are presented as mean±SEM. P values are calculated using standard deviations.

[2] = tested on: male Sprague Dawley rats; conditions: rat, in vivo
Description: (§1) Four week old male Sprague Dawley rats were allowed to fed ad libitum on a commercial rat food and tap water. Rats were raised in standard plastic and stainless steel cages on a 12 hour light-dark cycle. Solid food intake and body mass were monitored daily. Twenty four rats were divided randomly into three groups of eight. […] The last group was injected with 200 μL of doubly deionized water daily and served as the control. After 12 weeks, the animals were sacrificed by carbon dioxide asphyxiation. Liver, kidney, heart, pancreas, testes, and epididymal fat were quickly harvested and weighed. Liver and kidney were placed into plastic screw-top containers and stored at -80° C. for further analysis.

[3] = tested on: pUC19 plasmid DNA
Description: The reactions contain pUC19 (39 μM in base pairs) and 50 μM phosphate buffer, pH 7.0, and: Lane 2, 5 MM ascorbate; Lanes 3-7, 5 mM ascorbate and 120, 40, 4.0, 0.40, and 0.040 μM 1, respectively; Lane 8, 5 mM ascorbate and 1.2 μM Cr(pic)3 ; Lane 9, 5 mM ascorbate and 120 pM 1 under argon; Lane 10, 5 mM ascorbate, 120 μM 1, and 1 M EtOH; Lane 11, 5 mM ascorbate, 120 μM 1, and 1 M t-BuOH; Lane 12, 5 mM ascorbate, 120 μM 1, and 100 μg/mL SOD; and Lane 13, 5 mM ascorbate, 120 μl , and 100 μ/mL catalase. Reactions were allowed to proceed 60 minutes before quenching.
A typical reaction was carried out mixing aliquots of pUC19 (in 5 μM Tris, 500 EDTA buffer (pH 8.0)), reductant in H2 O, LMWCr in 50 mM NH4 OAc (pH 6.5) or 1 in H2 O, phosphate buffer (pH 7.0), and H2 O to give a final volume of 15 μL; the final phosphate concentration was 50 mM. Inhibitors were added as solutions in H2 O, solutions in phosphate buffer, or as neat liquids. Reactions were allowed to proceed 180 minutes unless otherwise noted. All reactions were quenched by addition of loading buffer (24% glycerol and 0.1% bromophenol blue). Seven microliter aliquots were loaded directly onto a 1% agarose gel and electrophoresed at 60 V. The gel was stained with ethidium bromide and was photographed on a UV transilluminator. […]

[4] = tested on: DH5α E. coli cells; conditions: DNA incubated 3 hrs with complex and peroxide; ampicillin plates
Description: A reaction mixture containing 10 μg of pUC19, 1.5 mM 1, and 0.900 mM H2 O in 10 mM Tris, pH 8.0 was allowed to react for 3 hours at 25° C. Quench buffer was added, and the sample was immediately loaded onto a 1% agarose gel containing 0.5 μg ml^-1 of ethidium bromide. After electrophoresis in 1×TBE buffer, the band at 3.5 kB was excised from the gel, and the DNA was removed from the gel using a Qiagen gel purification kit. The eluted DNA was gel-quantitated and used without further modification for transformation.
Electrocompetent DH5α E. coli cells were electroporated using 1 μL of 0.1 μg mL^-1 of either trimer-nicked DNA or supercoiled pUC19 plasmid DNA in 50 μL of cells. The E. coli cells were rescued by adding 1 mL of SOC media (20 gL^-1 Bactotryptone, 5 gL^-1 yeast extract, 9 mM NaCl, 20 mM glucose, pH 7.5), followed by incubation at 37° C. for 1 hour. Each cell suspension was diluted 1:100 with SOC media, and 50 μL of each diluted suspension was spread on separate LB-ANM agar plates containing 80 μg mL^-1 X-gal, 100 μM IPTG, and 100 μg mL^-1 ampicillin. The X-gal and IPTG were added to facilitate detection of colonies. The plates were placed in a 37° C. incubator overnight.

[5] = tested on: insulin-activated insulin receptor; conditions: cited from earlier work
[6] = tested on: pUC19 plasmid DNA; conditions: cited from earlier work
[7] = tested on: male Sprague Dawley rats; experiment: 12-week chromium supplementation of rats: body and tissue masses, toxic effects
Description: as §1

[8] = tested on: rats; conditions: up to 1500 μg/kg diet for up to 24 weeks; cited from earlier work
[9] = tested on: cultured Chinese hamster ovary cells; conditions: cited from earlier work
[10] = plasma, Week 4, fasted rats, 20 μg Cr/kg daily i.v., mean ± SEM
[11] = plasma, Week 8, fasted rats, 20 μg Cr/kg daily i.v., mean ± SEM
[12] = plasma, Week 12, fasted rats, 20 μg Cr/kg daily i.v., mean ± SEM

Molecule: CCC(=O)[O-].CCC(=O)[O-].CCC(=O)[O-].CCC(=O)[O-].CCC(=O)[O-].CCC(=O)[O-].O.O.O.[Cr+3].[Cr+3].[Cr+3].[O-2] [Compound 1, [Cr3 O(O2 CCH2 CH3)6 (H2 O)3]^+]
- Glucose [1, 10]: 168 ± 33 mg/dL
- Insulin [1, 10]: 99.0 ± 3.2 μIU/mL
- Total cholesterol [1, 10]: 65.2 ± 3.4 mg/dL
- Triglycerides [1, 10]: 83.3 ± 2.7 mg/dL
- Glucose [1, 11]: 75.5 ± 2.9 mg/dL
- Insulin [1, 11]: 43.3 ± 2.1 μIU/mL
- Total cholesterol [1, 11]: 63.8 ± 3.3 mg/dL
- Glucose [1, 12]: 68.2 ± 2.8 mg/dL
- HDL cholesterol [1, 12]: 10.7 ± 0.65 mg/dL
- Insulin [1, 12]: 43.0 ± 1.9 μIU/mL
- LDL cholesterol [1, 12]: 25.6 ± 2.4 mg/dL
- Total cholesterol [1, 12]: 46.9 ± 2.8 mg/dL
- Triglycerides [1, 12]: 53.2 ± 3.7 mg/dL
- LDL cholesterol concentration less than that of the control ([1]; week 12): ~40%
- total cholesterol concentration less than that of the control ([1]; week 12): 33%
- iron concentration of liver [2]: 6.0×10^2 μg/g dry mass
- DNA cleavage in the presence of dithiothreitol [3]: does not increase the amount of cleavage
- colonies of E. coli transformed with complex-nicked pUC19 versus supercoiled pUC19 [4]: the same number of colonies
- stimulation of insulin receptor tyrosine kinase activity [5]: mimic the ability of LMWCr to stimulate insulin receptor kinase activity
- DNA cleavage (literature) [6]: not to lead to DNA cleavage
- toxic effects of supplementation ([7]; 12 weeks, 20 μg Cr/kg daily i.v.): no toxic effects were observed
- Tissue mass, Epididymal fat ([7]; after 12 weeks, daily tail vein injection, 20 μg Cr per kg body mass, mean ± SEM, eight rats): 4.44 + 0.45 grams

Molecule: CC(=O)[O-].CC(=O)[O-].CC(=O)[O-].CC(=O)[O-].CC(=O)[O-].CC(=O)[O-].O.O.O.[Cr+3].[Cr+3].[Cr+3].[O-2] [acetate analogue of 1, [Cr3 O(OAc)6 (H2 O)3]^+, reference compound]
- DNA cleavage in the presence of biological reductants (literature) ([6]; Cr(pic)3: 120 nM chromium, 5 mM ascorbic acid or thiols, acetate analogue: ascorbate): unable to catalyze DNA cleavage in the presence of ascorbate

Molecule: chromium(III) tris(picolinate) [Cr(pic)3]
- acute toxic effects [8]: no acute toxic effects
- DNA strand breaks [9]: lead to DNA strand breaks
